Measured values from US20040265979A1, “Novel macrophage foam cell formation inhibitor fka-25 and process for producing the same” (priority 2004, published 2004).

Assays:
[1] = Physico-chemical properties: solubility in solvents, acidity/basicity; assay type: physicochemical
Excerpt: Physico-chemical properties of FKA-25 substance of the present invention are as follows.

[2] = system: Macrophages isolated from mice peritoneum; test: Formation of cholesteryl ester and lipid droplet in mouse intraperitoneal macrophages ([1-14C]oleic acid incorporation, TLC); assay type: cell-based; details: Macrophage, mouse peritoneal macrophages, liposome + [1-14C]oleic acid
Excerpt: Inhibitory action of FKA-25 substance of the present invention against intraperitoneal formation of cholesteryl ester and lipid droplet in mice is explained as follows.
Formation of cholesteryl ester and lipid droplet in mice in the intraperitoneal macrophage was examined according to the method of Namatame et al. (J. Biochem. 125, 319-327, 1999).
Macrophages isolated from mice peritoneum were suspended in Dulbecco modified Eagle's medium containing 6.8% lipoprotein deficient serum (6.8% LPDS-DMEM) 2.0×10^6 cells/ml, and plated each 0.25 ml into 48 well microplate (Corning Inc.) or slide chamber (Nunc Inc.).
The plate was incubated in 5% carbon dioxide incubator at 37° C. for 2 hours, then cells without attachment were removed by washing with Hank's solution. After washing, cells were incubated with 6.8% LPDS-DMEM for 1 hour, and FKA-25 substance (2.5 μl methanol), liposome (a composition consisting of phosphatidylcholine/phosphatidylserine/dicetylphosphate/cholesterol=10:10:2:15 (n mol) in 0.3 M glucose 10 μl) and [1-^14C]oleic acid (5 μl, 0.05 μCi, 1 nmol) were added, then incubated for 14 hours.
Cultured supernatant was removed off and intracellular neutral lipid was extracted twice by adding hexane 0.6 ml and isopropanol 0.4 ml. […] The separated [^14C]cholesteryl oleate and [^14C]triacylglycerol were quantitatively measured by using radio scanner (Ambis Inc., the U.S.). […]

## CC(C)=CCc1c(C(O)C2OC2(C)C)ccc2[nH]c3c(c12)CC1CCC2(O)C(C)(C)C(=O)CCC2(C)C31C (centres unmarked) [FKA-25 substance]
[1]
  Differentiation from acidity, neutrality and basicity: weak basic substance
[1]; in methanol, acetone, chloroform and ethyl acetate
  Solubility in solvents: Soluble
[1]; in water and hexane
  Solubility in solvents: slightly soluble
[2]; at 3.2 μM, 14 hours, read-out: inhibition of the formation of triacylglycerol
  inhibition at 3.2 µM: ~50%
[2]; incubated for 14 hours, read-out: IC50, inhibition of the formation of [14C]cholesteryl oleate
  IC50: 4 µM
